Measured values from patent US8791084B2, “Inhibition of SOX9 function in the treatment of proteoglycan-associated pathophysiological conditions” (Robarts Research Institute, priority 2006, dated 2014).

Tests used:
[1] = system: rat primary astrocyte cultures; test: Cytokine treatment of primary astrocyte cultures, mRNA levels by Q-PCR; type: cell-based; conditions: for XT-II mRNA: 6 week-old primary astrocyte cultures, 1, 10 or 100 ng/ml cytokine, 12 hour exposure, relative to untreated cultures; for SOX9 mRNA levels: primary astrocyte cultures after cytokine treatments; for Fibronectin expression / Laminin expression: primary astrocyte cultures following cytokine treatments
Procedure: (§1) Primary astrocyte cultures were prepared from newborn rats at postnatal day 1 (P1) (Wilson and Dixon 1989). The upper portion of the skull was removed and the meninges carefully dissected away to avoid contamination of the culture with fibroblasts. The neocortices were removed, placed into serum-free advanced D-MEM (Dulbecco's Modified Eagle Medium, Invitrogen), homogenized by pipeting and gravity-filtered through 70 μm cell strainer (Falcon). The cells were plated onto 6-well dishes (Falcon). […] Cytokine treatments of primary astrocytes with PDGF, IL-6, TNFα and TGFβ2 (R and D systems) and bFGF2 (Invitrogen) were carried out for 12 hours. RNA was extracted using the Qiagen (Germany) RNA-easy kit following manufacturer's specifications. The transfections of primary astrocytes with SiRNAs and the CMV-SOX9 expression construct were conducted using Lipofectamine 2000 (Invitrogen) according to manufacturer's specifications in 6-well dishes (Falcon). The siRNA ([…]) (SEQ ID No. 4) was used at a concentration of 150 pM. The universal negative control scrambled SiRNA was used according to manufacturer's (Invitrogen) specifications. Transfection efficiencies with a fluorescently-tagged control SiRNA was 35%-40%. The CMV-SOX9 construct has previously been described (Foster et al. 1994; Lefebvre et al. 1997) and plasmid transfection efficiency estimated by cotransfection with a CMV-GFP construct was approximately 10%.
(§2) First strand cDNA was synthesized from 1 μg RNA per condition (cell culture or animal tissue) using the High Capacity cDNA Archive Kit according to the manufacturer protocol (Applied Biosystems Foster City Calif.). The primer probe sets, optical adhesive covers, and PCR plates were purchased from Applied Biosystems (Foster City, Calif.). The probes were labeled with 5′ FAM and with 3′TAMRA as quencher with the exception of the ribosomal probe, which was labeled with 5′ VIC. For Taq Man assays the thermal cycler conditions were 10 minutes at 95° C. followed by 40 cycles of 30 seconds at 95° C. followed by 30 seconds at 60° C. A standard curve of cycle thresholds using cDNA serial dilutions was established and used to calculate abundance of each target mRNA. Technical triplicates and at least biological triplicates were run on all conditions tested. Values were normalized to the amounts of 18S mRNA as determined by Q-PCR. The data were analyzed by a two way ANOVA following by a Bonferroni test with Dunn's correction for multiple comparisons or Dunnet's procedure when comparisons were made with a single variable (control). Student's t-test was used when only two groups were compared.
To evaluate TGFβ2, PDGF and IL-6 as candidate XT-I, XT-II and C4ST transcriptional regulators, rat primary astrocyte cultures were exposed to 1, 10 or 100 ng/ml of each cytokine. After a 12 hour cytokine exposure, XT-I, XT-II and C4ST mRNA levels were measured relative to untreated cultures by Q-PCR. Six week-old cultures were used as, by this time point, the astrocytes are quiescent (as evidenced by reduced GFAP expression) and baseline levels of XT-I, XT-II and C4ST genes are low.
To test whether SOX9 regulates expression of XT-I, XT-II and C4ST in vitro, primary astrocytes were transfected with a SOX9 expression construct and assessed for CBG mRNA levels by Q-PCR 48 hours later. […] The levels of fibronectin and laminin mRNA in these same cultures were unaffected by SOX9 over-expression. To determine whether IL-6, PDGF and TGF[…]2 might increase XT-I, XT-II and C4ST gene expression by up-regulating SOX9 expression, the expression levels of SOX9 mRNA were assayed after these cytokine treatments in primary astrocyte cultures.

[2] = system: rat primary astrocyte cultures; test: Slot blot analysis of CSPG protein (CS56) in cytokine-treated primary astrocytes; type: cell-based
Procedure: as §1
Tissue and cell samples were lysed in RIPA buffer [20 mM, Tris-HCl (pH 7.6), 150 mM NaCl, 0.5% sodium deoxycholate, 1% Triton X-100, 0.1% SDS]. […] Immunoreactive bands were scanned by an imaging densitometer (BioRad GF-700 Imaging Densitometer, Mississauga, ON); and results were quantified using Multi-Analist software (BioRad, Mississauga, ON). […]
To evaluate TGFβ2, PDGF and IL-6 as candidate XT-I, XT-II and C4ST transcriptional regulators, rat primary astrocyte cultures were exposed to 1, 10 or 100 ng/ml of each cytokine. After a 12 hour cytokine exposure, XT-I, XT-II and C4ST mRNA levels were measured relative to untreated cultures by Q-PCR. […]

SOX9 [3] = test: SOX9 knock-down by anti-SOX9 siRNA transfection of primary astrocytes, mRNA levels by Q-PCR; type: cell-based, rat
Procedure: as §1, §2
To test the effect of SOX9 knock-down on the expression of XT-I, XT-II and C4ST, a control (scrambled) small interfering RNA (SiRNA) or an anti-SOX9 SiRNA was transfected into primary astrocytes and mRNA levels of SOX9, XT-I, XT-II and C4ST were assayed by Q-PCR 12 hours later. […] (FIG. 7 E, F).

SOX9 [4] = test: SOX9 luciferase reporter construct assay in primary astrocytes; type: cell-based, rat
Text: Astrocytes, such as wither primary astrocytes (rodent or human) or an established astrocyte cell line designated as Neu7 (Fok-Seang, Smith-Thomas et al. 1995), were transfected with a SOX9 reporter construct under standard conditions. The SOX9 reporter construct (a gift from Dr. Michael Underhill, University of British Columbia) has 4 repeats of the SOX9 binding site coupled to the mouse Col2a1 minimal promoter (−89 to +6) cloned upstream of a luciferase gene in the plasmid pGL4 (Promega) (Weston, Chandraratna et al. 2002). Changes in luciferase levels in transfected cultures is used as a read-out of SOX9 activity. The anti-SOX9 SiRNA previously used (or astrocytes from the SOX9 conditional knock out) is used as a positive control and the scrambled siRNA is used as a negative control for this screen. The screen is used to identify compounds that reduce the levels of luciferase activity relative to control wells. […]
Specifically, primary astrocytes obtained from newborn rats were cultured in 6-well dishes for 6 weeks in Advanced-DMEM with 10% FBS. […] Transfection efficiency was calculated by co-transfection with a control plasmid. […] Twenty-four hours after the TGF-β2 application the cells were lysed and luciferase activity was measured using the Luciferase Assay System (PROMEGA) (according to the manufacturer's protocol) and a luminometer.

[5] = TGFβ2 treatment alone, primary astrocytes
[6] = SOX9 knock-down in primary astrocytes
[7] = TGFβ2-treated primary astrocytes
[8] = primary astrocytes, 12 hours after transfection, siRNA 150 pM

| Substance | XT-II mRNA [1] | SOX9 mRNA levels [1] | Fibronectin expression [1] | Laminin expression [1] | CSPG protein expression [2] | other results |
| --- | --- | --- | --- | --- | --- | --- |
| TGFβ2: cytokine (R and D systems) used to treat primary astrocytes | strong, concentration-dependent up-regulation | significant increase | similarly increased | similarly increased | increased expression | SOX9 mRNA levels (SOX9 [3]; [5]): increased; XT-1 mRNA levels (SOX9 [3]; [5]): increased; luciferase activity (SOX9 [4]; SOX9 luciferase reporter construct following treatment (FIG. 10)): increased; increase in luciferase activity (SOX9 [4]; TGF-β2 final concentration 10 nM, 24 hours, primary astrocytes from newborn rats cultured 6 weeks): ~2 fold |
| PDGF | strong, concentration-dependent up-regulation | significant increase | similarly increased | similarly increased | increased expression |  |
| bFGF: cytokine (Invitrogen) used to treat primary astrocytes | no effect |  |  |  |  |  |
| AAAGUUGUCGCUCCCACUGAAGUUU (listed as RNA, chemistry not given here) [anti-SOX9 siRNA, small interfering RNA against SOX9, used at 150 pM in primary astrocytes] |  |  |  |  |  | fibronectin gene expression (SOX9 [3]; [6]): did not decrease; laminin gene expression (SOX9 [3]; [6]): did not decrease; reduction in SOX9 mRNA levels (SOX9 [3]; [7]): 87±13%; reduction in XT-I mRNA (SOX9 [3]; [7]): 68±6.4%; reduction in SOX9 mRNA levels (SOX9 [3]; [8]): 75±12%; reduction in XT-I mRNA (SOX9 [3]; [8]): 71±5.5% |
| IL-6: cytokine (R and D systems) used to treat primary astrocytes | strong, concentration-dependent up-regulation | significant increase | similarly increased | similarly increased | increased expression |  |
